According to US12692261B2, “Substituted heterocyclic compounds and therapeutic uses thereof” (Bayer Aktiengesellschaft, priority 2020, dated 2026):
Where two headings read alike, the source gives them in different places.

Legend:
[1] = target: T1, full-length human CSNK1A1 (Homo sapiens, UniProt P48729); test: CSNK1A1 Assay 2 (ADP-Glo, 1 μM ATP, substrate biotin-Ahx-KRRRAL-pS-VASLPGL); type: biochemical; details: Table 3, read-out: CSNK1A1 Assay 2 IC50 [mol/l] (median)
T1 construct: N-terminal Glutathion-S-Transferase (GST) and full-length human CSNK1A1; purchased Life Technologies PV4174; host or cells: baculovirus infected insect cells
T1 sequence (P48729 whole entry): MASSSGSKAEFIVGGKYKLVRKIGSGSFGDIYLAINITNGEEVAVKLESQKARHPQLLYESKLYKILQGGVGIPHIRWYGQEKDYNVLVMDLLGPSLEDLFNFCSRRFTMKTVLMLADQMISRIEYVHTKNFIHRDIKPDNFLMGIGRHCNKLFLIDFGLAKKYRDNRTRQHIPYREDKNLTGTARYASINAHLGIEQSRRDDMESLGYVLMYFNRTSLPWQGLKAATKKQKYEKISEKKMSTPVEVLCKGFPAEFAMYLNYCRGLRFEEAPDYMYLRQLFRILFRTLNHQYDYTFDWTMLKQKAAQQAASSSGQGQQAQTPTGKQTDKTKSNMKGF
Method: CSNK1A1-inhibitory activity of compounds of the present invention in presence of 1 μM adenosine-tri-phosphate (ATP) was quantified employing the CSNK1A1 assay as described in the following paragraphs. In essence, the enzyme activity is measured by quantification of the adenosine-di-phosphate (ADP), which is generated as a co-product of the enzyme reaction, via the “ADP-Glo™ Kinase Assay” kit from the company Promega. This detection system works as follows: In a first step the ATP not consumed in the kinase reaction is quantitatively converted to cAMP employing an adenylate cyclase (“ADP-Glo-reagent”), then the adenylate cyclase is stopped and the ADP generated in the kinase reaction converted to ATP which generates in a luciferase-based reaction a glow-luminescence signal (“Kinase Detection Reagent”).
Recombinant fusion protein of N-terminal Glutathion-S-Transferase (GST) and full-length human CSNK1A1, expressed by baculovirus infected insect cells and purified via Glutathion affinity chromatography, was purchased from Life Technologies (product no. PV4174) and used as enzyme. As substrate for the kinase reaction the biotinylated peptide biotin-Ahx-KRRRAL-pS-VASLPGL (C-terminus in amide form) was used which can be purchased e.g. from the company Biosyntan (Berlin-Buch, Germany).
For the assay 50 nl of a 100 fold concentrated solution of the test compound in DMSO was pipetted into a white 1536-well microtiter plate (Greiner Bio-One, Frickenhausen, Germany), 2 μL of a solution of CSNK1A1 in aqueous assay buffer [50 mM HEPES pH 7.5, 10% (v/v) glycerol, 10 mM MgCl2, 50 mM NaCl, 1 mM dithiothreitol, 0.01% (w/v) bovine serum albumin, 0.01% (v/v) Triton X-100] were added and the mixture was incubated for 15 min at 22° C. to allow pre-binding of the test compounds to the enzyme before the start of the kinase reaction. […] The concentration of CSNK1A1 was adjusted depending of the activity of the enzyme lot and was chosen appropriate to have the assay in the linear range, a typical concentrations are about 0.0375 ng/μL. The reaction was stopped by the addition of 2.5 μL of “ADP-Glo-reagent” (1:1.5 fold diluted with water) and the resulting mixture was incubated at 22° C. for 1 h to convert the ATP not consumed in the kinase reaction completely […]. Subsequently 2.5 μL of the “kinase detection reagent” (1.2 fold more concentrated than recommended by the producer) were added, the resulting mixture was incubated at 22° C. for 1 h and then the luminescence measured with a suitable measurement instrument (e.g. Viewlux™ from Perkin-Elmer). The amount of emitted light was taken as a measure for the amount of ADP generated and thereby for the activity of the CSNK1A1.

[2] = target: T2, wild-type Epidermal Growth Factor Receptor (EGFR) (Homo sapiens, UniProt P00533); test: WT-EGFR Kinase Assay (TR-FRET, 2 mM ATP); type: biochemical
T2 construct: a fragment of human EGFR (amino acids R669 to A1210); made in house; host or cells: Sf9 insect cells
T2 sequence (P00533 669-1210): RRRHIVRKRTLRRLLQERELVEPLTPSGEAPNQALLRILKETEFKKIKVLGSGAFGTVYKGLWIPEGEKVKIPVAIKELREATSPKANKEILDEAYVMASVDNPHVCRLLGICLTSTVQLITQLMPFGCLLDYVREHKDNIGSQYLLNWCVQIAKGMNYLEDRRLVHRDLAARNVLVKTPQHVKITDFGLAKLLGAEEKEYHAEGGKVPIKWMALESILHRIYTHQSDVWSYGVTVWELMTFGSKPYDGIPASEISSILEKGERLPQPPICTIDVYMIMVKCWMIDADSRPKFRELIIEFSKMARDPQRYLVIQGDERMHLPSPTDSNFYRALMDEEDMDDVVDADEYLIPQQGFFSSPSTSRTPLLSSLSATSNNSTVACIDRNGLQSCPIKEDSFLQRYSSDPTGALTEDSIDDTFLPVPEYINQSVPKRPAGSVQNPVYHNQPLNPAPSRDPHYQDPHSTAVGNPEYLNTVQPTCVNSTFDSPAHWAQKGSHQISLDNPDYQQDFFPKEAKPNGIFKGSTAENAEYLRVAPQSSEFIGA
Excerpt: Inhibitory activity of compounds of the present invention against wild-type Epidermal Growth Factor Receptor (EGFR) was quantified employing the TR-FRET based EGFR assay as described in the following paragraphs.
Recombinant fusion protein of N-terminal Glutathion-S-Transferase (GST) and a fragment of human EGFR (amino acids R669 to A1210), expressed in Sf9 insect cells and purified via affinity chromatography using Glutathion Sepharose as described above, was used as kinase. As substrate for the kinase reaction the biotinylated peptide biotin-Ahx-[…] (C-terminus in amide form) was used which can be purchased e.g. form the company Biosynthan GmbH (Berlin-Buch, Germany).
For the assay 50 nl of a 100 fold concentrated solution of the test compound in DMSO was pipetted into either a black low volume 384 well microtiter plate or a black 1536 well microtiter plate (both Greiner Bio-One, Frickenhausen, Germany), 2 μL of a solution of EGFR in aqueous assay buffer [50 mM Hepes pH 7.0, 10 mM MgCl2, 1 mM dithiothreitol, 0.5 mM EGTA, 0.3 mM activated sodium ortho-vanadate, 0.005% (w/v) bovine serum albumin, 0.005% (v/v) Tween-20] were added and the mixture was incubated for 15 min at 22° C. to allow pre-binding of the test compounds to the enzyme before the start of the kinase reaction. […] The concentration of EGFR was adjusted depending of the activity of the enzyme lot and was chosen appropriate to have the assay in the linear range, typical concentration was 7.6 pg/μL. The reaction was stopped by the addition of 3 μL of a solution of HTRF detection reagents (83.3 nM streptavidine-XL665 [Cisbio Bioassays, Codolet, France] and 1.67 nM PT66-Tb-Cryptate, a terbium-cryptate labelled anti-phospho-tyrosine antibody from Cisbio Bioassays [instead of the PT66-Tb-cryptate PT66-Eu-Chelate from Perkin Elmer can also be used]) in an aqueous EDTA-solution (133.3 mM EDTA, 0.2% (w/v) bovine serum albumin in 50 mM HEPES pH 7.5).
The resulting mixture was incubated 1 h at 22° C. to allow the binding of the biotinylated phosphorylated peptide to the streptavidine-XL665 and the PT66-Tb-Cryptate. Subsequently the amount of phosphorylated substrate was evaluated by measurement of the resonance energy transfer from the PT66-Tb-Cryptate to the streptavidine-XL665. Therefore, the fluorescence emissions at 620 nm and 665 nm after excitation at 337 nm were measured in a HTRF reader, e.g. a Pherastar (BMG Labtechnologies, Offenburg, Germany) or a Viewlux (Perkin-Elmer). The ratio of the emissions at 665 nm and at 622 nm was taken as the measure for the amount of phosphorylated substrate.

[3] = EGFR Wildtyp 2 mM ATP IC50 [mol/l] (median), Table 4
[4] = read-out: EGFR Wildtyp 2 mM ATP IC50 [mol/l] (median), Table 4

Row | SMILES | IC50 [1] | IC50 [2, 3] | IC50 [2, 4]
1 | O=C(Nc1cc(-c2[nH]c3cncnc3c2-c2ccccn2)ccn1)C(CC(F)F)c1ccc(F)cc1 (racemic) [Example 13, 4,4-difluoro-2-(4-fluorophenyl)-N-{4-[7-(pyridin-2-yl)-5H-pyrrolo[3,2-d]pyrimidin-6-yl]pyridin-2-yl}butanamide] | 4.66 nM | > 20000 nM | –
2 | O=C(Nc1cc(-c2[nH]c3c(C4CCCO4)cc(F)nc3c2-c2ccccn2)ccn1)C(CC(F)F)c1ccc(F)cc1 (single isomer, unassigned) [Example 117, (2R or S)-4,4-difluoro-N-(4-{5-fluoro-7-[(2R or S)-oxolan-2-yl]-3-(pyridin-2-yl)-1H-pyrrolo[3,2-b]pyridin-2-yl}pyridin-2-yl)-2-(4-fluorophenyl)butanamide] | 9.89 nM | > 20000 nM | –
3 | O=C(Nc1cc(-c2[nH]c3cc(F)cnc3c2-c2ccccn2)ccn1)C(CC(F)F)c1ccc(F)cc1 (racemic) [Example 16, 4,4-difluoro-2-(4-fluorophenyl)-N-{4-[6-fluoro-3-(pyridin-2-yl)-1H-pyrrolo[3,2-b]pyridin-2-yl]pyridin-2-yl}butanamide] | 3.39 nM | > 20000 nM | –
4 | COc1cc(F)nc2c(-c3ccccn3)c(-c3ccnc(NC(=O)C(CC(F)F)c4ccc(F)cc4)c3)[nH]c12 (single isomer, unassigned; (+)) [Example 40, (+)-4,4-difluoro-N-{4-[5-fluoro-7-methoxy-3-(pyridin-2-yl)-1H-pyrrolo[3,2-b]pyridin-2-yl]pyridin-2-yl}-2-(4-fluorophenyl)butanamide] | 3.69 nM | > 20000 nM | –
5 | Cc1cnc2c(-c3ccccn3)c(-c3ccnc(NC(=O)C(CC(F)F)c4ccc(F)cc4)c3)[nH]c2c1 (single isomer, unassigned) [Example 9, 4,4-difluoro-2-(4-fluorophenyl)-N-{4-[6-methyl-3-(pyridin-2-yl)-1H-pyrrolo[3,2-b]pyridin-2-yl]pyridin-2-yl}butanamide] | 15.8 nM | – | > 20000 nM
6 | O=C(Nc1cc(-c2[nH]c3c(OCC(F)F)cc(F)nc3c2-c2ccccn2)ccn1)C(CC(F)F)c1ccc(F)cc1 (single isomer, unassigned) [Example 29, (2R or S)—N-{4-[7-(2,2-difluoroethoxy)-5-fluoro-3-(pyridin-2-yl)-1H-pyrrolo[3,2-b]pyridin-2-yl]pyridin-2-yl}-4,4-difluoro-2-(4-fluorophenyl)butanamide] | 3.31 nM | > 20000 nM | –
7 | Cc1cc2[nH]c(-c3ccnc(NC(=O)C(CC(F)F)c4ccc(F)cc4)c3)c(-c3ccccn3)c2nc1F (single isomer, unassigned) [Example 35, 4,4-difluoro-N-{4-[5-fluoro-6-methyl-3-(pyridin-2-yl)-1H-pyrrolo[3,2-b]pyridin-2-yl]pyridin-2-yl}-2-(4-fluorophenyl)butanamide] | 2.69 nM | – | > 20000 nM
8 | O=C(Nc1cc(-c2[nH]c3cc(F)cnc3c2-c2ccccc2)ccn1)C(CC(F)F)c1ccc(F)cc1 (racemic) [Example 19, 4,4-difluoro-2-(4-fluorophenyl)-N-[4-(6-fluoro-3-phenyl-1H-pyrrolo[3,2-b]pyridin-2-yl)pyridin-2-yl]butanamide] | 9.22 nM | > 20000 nM | –
9 | O=C(Nc1cc(-c2[nH]c3c(OC4CC4)cc(F)nc3c2-c2ccccn2)ccn1)C(CC(F)F)c1ccc(F)cc1 (racemic) [Example 42, (rac)-N-{4-[7-(cyclopropyloxy)-5-fluoro-3-(pyridin-2-yl)-1H-pyrrolo[3,2-b]pyridin-2-yl]pyridin-2-yl}-4,4-difluoro-2-(4-fluorophenyl)butanamide] | 8.22 nM | > 20000 nM | –
10 | CC(C)(O)c1cc(F)nc2c(-c3ccccn3)c(-c3ccnc(NC(=O)C(CC(F)F)c4ccc(F)cc4)c3)[nH]c12 (single isomer, unassigned) [Example 100, (2R or S)-4,4-difluoro-N-{4-[5-fluoro-7-(2-hydroxypropan-2-yl)-3-(pyridin-2-yl)-1H-pyrrolo[3,2-b]pyridin-2-yl]pyridin-2-yl}-2-(4-fluorophenyl)butanamide] | 33.6 nM | – | > 20000 nM
11 | Cc1ccc2[nH]c(-c3ccnc(NC(=O)C(CC(F)F)c4ccc(F)cc4)c3)c(-c3ccccn3)c2n1 (racemic) [Example 4, 4,4-difluoro-2-(4-fluorophenyl)-N-{4-[5-methyl-3-(pyridin-2-yl)-1H-pyrrolo[3,2-b]pyridin-2-yl]pyridin-2-yl}butanamide] | 6.49 nM | > 20000 nM | –
12 | O=C(Nc1cc(-c2[nH]c3c(OCC(F)F)cc(F)nc3c2-c2ccccn2)ccn1)C(CC(F)F)c1ccc(F)cc1 (single isomer, unassigned) [Example 30, (2R or S)—N-{4-[7-(2,2-difluoroethoxy)-5-fluoro-3-(pyridin-2-yl)-1H-pyrrolo[3,2-b]pyridin-2-yl]pyridin-2-yl}-4,4-difluoro-2-(4-fluorophenyl)butanamide] | 8.84 nM | – | > 20000 nM
13 | O=C(Nc1cc(-c2[nH]c3c(OC[C@H]4COCCO4)cc(F)nc3c2-c2ccccn2)ccn1)C(CC(F)F)c1ccc(F)cc1 (mixture of isomers) [Example 50, (2RS)—N-{4-[7-{[(2R)-1,4-dioxan-2-yl]methoxy}-5-fluoro-3-(pyridin-2-yl)-1H-pyrrolo[3,2-b]pyridin-2-yl]pyridin-2-yl}-4,4-difluoro-2-(4-fluorophenyl)butanamide] | 9.34 nM | > 20000 nM | –
14 | O=C(Nc1cc(-c2[nH]c3c(OC4CC4)cc(F)nc3c2-c2ccccn2)ccn1)C(CC(F)F)c1ccc(F)cc1 (stereo not drawn) [Example 45] | 22.3 nM | > 20000 nM | –
15 | O=C(Nc1cc(-c2[nH]c3cncnc3c2-c2ccccn2)ccn1)C(CC(F)F)c1ccc(F)cc1 (single isomer, unassigned; (+)) [Example 15, (+)-4,4-difluoro-2-(4-fluorophenyl)-N-{4-[7-(pyridin-2-yl)-5H-pyrrolo[3,2-d]pyrimidin-6-yl]pyridin-2-yl}butanamide] | 1.32 nM | – | > 20000 nM
